# Experiments:
# Experiment in all cases: KINOMEscan
# Type in all cases: binding
# Conditions in all cases: read-out: % control activity remaining
# FLT3(D835H) = target: T1, FLT3(D835H) (Homo sapiens, UniProt P36888, D835H)
# T1 construct: purchased Eurofins DiscoverX KINOMEscan
# T1 sequence (P36888 27-993 D835H): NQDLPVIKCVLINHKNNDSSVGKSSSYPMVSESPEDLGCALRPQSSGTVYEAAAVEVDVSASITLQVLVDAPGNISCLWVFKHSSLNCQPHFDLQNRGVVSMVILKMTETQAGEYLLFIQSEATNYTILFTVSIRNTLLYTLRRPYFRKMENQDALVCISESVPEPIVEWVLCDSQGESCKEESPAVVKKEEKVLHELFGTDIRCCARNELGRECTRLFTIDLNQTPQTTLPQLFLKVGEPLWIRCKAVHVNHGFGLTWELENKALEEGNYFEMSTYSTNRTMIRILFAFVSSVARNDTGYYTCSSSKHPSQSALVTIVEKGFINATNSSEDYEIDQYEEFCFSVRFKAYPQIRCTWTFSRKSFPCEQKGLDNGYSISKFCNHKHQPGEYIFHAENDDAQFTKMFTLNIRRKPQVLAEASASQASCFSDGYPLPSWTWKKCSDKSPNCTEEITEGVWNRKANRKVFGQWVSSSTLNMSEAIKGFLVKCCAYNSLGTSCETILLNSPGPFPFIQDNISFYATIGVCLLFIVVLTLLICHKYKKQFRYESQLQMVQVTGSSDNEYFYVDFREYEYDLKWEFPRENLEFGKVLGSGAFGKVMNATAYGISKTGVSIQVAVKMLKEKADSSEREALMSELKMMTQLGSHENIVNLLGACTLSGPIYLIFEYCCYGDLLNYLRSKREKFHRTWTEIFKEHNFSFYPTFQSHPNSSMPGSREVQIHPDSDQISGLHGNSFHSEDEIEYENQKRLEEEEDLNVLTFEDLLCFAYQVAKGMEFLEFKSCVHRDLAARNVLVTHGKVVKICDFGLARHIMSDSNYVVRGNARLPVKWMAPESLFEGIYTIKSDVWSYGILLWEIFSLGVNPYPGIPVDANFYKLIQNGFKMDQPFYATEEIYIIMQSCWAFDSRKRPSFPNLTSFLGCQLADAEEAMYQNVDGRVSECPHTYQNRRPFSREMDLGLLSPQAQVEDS
# [1] = target: T2, RSK3(Kin.Dom.2-C-terminal) (Homo sapiens, UniProt Q15349)
# T2 construct: RSK3(Kin.Dom.2-C-terminal); purchased Eurofins DiscoverX KINOMEscan
# ULK3 = target: T3, ULK3 (Homo sapiens, UniProt Q6PHR2)
# T3 construct: purchased Eurofins DiscoverX KINOMEscan
# T3 sequence (Q6PHR2 1-472): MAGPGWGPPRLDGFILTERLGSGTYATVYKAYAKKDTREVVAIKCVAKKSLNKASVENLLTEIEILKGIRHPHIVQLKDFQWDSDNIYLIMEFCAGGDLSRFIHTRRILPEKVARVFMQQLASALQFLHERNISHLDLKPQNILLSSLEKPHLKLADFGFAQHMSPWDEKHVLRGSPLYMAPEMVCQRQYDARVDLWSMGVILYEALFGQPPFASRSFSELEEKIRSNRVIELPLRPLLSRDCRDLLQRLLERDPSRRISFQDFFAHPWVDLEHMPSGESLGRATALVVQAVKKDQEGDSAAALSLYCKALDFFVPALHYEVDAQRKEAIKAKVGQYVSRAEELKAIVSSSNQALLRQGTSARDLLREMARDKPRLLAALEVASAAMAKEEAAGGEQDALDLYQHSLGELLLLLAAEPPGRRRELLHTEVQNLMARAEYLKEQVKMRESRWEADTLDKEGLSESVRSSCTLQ
# NEK1 = target: T4, NEK1 (Homo sapiens, UniProt Q96PY6)
# T4 construct: purchased Eurofins DiscoverX KINOMEscan
# T4 sequence (Q96PY6 1-1258): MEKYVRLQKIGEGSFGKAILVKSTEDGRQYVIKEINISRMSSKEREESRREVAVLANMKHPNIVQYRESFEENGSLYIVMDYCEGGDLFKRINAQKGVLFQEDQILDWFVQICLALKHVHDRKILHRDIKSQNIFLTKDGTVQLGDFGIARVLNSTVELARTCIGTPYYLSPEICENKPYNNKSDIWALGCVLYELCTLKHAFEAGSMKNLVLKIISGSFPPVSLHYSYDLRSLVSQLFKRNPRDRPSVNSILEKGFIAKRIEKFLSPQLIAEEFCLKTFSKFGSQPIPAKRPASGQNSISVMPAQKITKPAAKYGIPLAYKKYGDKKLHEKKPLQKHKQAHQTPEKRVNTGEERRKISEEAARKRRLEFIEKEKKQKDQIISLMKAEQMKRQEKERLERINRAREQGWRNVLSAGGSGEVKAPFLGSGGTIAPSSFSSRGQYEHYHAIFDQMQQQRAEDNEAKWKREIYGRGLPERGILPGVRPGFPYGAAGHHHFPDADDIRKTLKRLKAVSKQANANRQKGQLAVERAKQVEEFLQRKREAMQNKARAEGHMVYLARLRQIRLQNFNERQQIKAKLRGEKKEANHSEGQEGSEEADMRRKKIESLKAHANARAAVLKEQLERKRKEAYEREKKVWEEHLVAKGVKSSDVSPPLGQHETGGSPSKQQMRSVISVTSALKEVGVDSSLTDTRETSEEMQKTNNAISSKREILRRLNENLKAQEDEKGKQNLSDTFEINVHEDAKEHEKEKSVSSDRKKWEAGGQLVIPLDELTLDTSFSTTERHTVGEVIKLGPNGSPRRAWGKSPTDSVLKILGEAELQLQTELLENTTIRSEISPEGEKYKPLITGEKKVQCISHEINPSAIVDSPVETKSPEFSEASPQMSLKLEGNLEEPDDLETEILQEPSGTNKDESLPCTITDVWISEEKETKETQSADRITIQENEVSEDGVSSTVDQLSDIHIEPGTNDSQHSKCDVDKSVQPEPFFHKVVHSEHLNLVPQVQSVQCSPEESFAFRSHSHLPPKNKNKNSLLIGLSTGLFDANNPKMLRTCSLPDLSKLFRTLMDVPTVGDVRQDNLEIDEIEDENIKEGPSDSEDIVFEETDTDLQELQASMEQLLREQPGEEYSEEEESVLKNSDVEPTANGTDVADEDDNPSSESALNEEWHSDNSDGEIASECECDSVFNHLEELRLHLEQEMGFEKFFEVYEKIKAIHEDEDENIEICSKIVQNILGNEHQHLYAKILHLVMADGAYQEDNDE
# KIT(V559D) = target: T5, KIT(V559D) (Homo sapiens, UniProt P10721, V559D)
# T5 construct: purchased Eurofins DiscoverX KINOMEscan
# LOK = target: T6, LOK (Homo sapiens, UniProt O94804)
# T6 construct: purchased Eurofins DiscoverX KINOMEscan
# T6 sequence (O94804 whole entry): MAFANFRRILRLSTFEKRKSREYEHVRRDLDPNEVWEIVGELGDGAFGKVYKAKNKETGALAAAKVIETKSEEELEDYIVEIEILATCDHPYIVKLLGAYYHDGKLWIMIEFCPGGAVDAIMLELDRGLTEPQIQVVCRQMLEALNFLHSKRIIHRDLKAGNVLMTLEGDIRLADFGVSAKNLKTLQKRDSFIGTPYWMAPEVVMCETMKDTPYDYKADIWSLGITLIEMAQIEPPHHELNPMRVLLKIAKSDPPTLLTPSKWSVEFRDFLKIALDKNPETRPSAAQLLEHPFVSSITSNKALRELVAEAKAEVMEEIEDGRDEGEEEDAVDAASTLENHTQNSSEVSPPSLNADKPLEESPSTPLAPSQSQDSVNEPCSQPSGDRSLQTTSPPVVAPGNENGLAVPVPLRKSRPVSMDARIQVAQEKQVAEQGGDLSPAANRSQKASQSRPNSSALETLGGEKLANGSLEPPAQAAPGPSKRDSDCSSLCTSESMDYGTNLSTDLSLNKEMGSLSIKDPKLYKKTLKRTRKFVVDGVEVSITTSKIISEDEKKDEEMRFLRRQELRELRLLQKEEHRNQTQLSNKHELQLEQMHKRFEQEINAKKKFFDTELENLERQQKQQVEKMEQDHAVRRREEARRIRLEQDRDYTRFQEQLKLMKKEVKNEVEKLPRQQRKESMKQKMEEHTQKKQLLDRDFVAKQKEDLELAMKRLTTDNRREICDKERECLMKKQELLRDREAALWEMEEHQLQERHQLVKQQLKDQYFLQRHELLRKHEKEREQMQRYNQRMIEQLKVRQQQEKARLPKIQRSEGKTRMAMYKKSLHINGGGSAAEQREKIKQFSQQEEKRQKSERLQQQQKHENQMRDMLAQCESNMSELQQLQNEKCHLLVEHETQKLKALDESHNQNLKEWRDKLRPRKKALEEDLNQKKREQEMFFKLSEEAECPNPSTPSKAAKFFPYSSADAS
# T5 sequence (P10721 26-976 V559D): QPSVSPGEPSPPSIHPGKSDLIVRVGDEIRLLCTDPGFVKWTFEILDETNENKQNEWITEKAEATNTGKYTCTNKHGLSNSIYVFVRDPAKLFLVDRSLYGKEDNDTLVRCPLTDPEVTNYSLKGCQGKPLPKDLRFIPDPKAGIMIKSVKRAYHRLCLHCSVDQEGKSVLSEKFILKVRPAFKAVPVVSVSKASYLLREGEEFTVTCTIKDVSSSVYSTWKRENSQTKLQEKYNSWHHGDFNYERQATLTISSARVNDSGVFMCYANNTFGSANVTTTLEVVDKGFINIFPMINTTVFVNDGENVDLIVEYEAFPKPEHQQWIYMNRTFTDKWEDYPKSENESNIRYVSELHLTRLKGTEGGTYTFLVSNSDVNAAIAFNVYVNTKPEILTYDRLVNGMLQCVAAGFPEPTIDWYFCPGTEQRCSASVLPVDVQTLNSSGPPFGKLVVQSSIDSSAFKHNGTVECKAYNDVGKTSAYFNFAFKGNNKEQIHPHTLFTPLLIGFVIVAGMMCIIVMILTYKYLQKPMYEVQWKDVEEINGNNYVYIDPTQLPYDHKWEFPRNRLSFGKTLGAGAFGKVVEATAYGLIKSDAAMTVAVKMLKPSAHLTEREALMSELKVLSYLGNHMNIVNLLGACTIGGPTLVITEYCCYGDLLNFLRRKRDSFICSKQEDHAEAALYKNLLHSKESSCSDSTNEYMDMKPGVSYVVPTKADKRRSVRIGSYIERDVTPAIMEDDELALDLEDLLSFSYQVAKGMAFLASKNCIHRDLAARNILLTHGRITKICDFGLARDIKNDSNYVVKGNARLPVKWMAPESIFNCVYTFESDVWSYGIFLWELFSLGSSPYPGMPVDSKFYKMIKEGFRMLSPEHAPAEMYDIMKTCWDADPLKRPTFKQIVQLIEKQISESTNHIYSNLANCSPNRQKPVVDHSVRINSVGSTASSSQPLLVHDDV
# T2 sequence (Q15349 415-672 limits assumed): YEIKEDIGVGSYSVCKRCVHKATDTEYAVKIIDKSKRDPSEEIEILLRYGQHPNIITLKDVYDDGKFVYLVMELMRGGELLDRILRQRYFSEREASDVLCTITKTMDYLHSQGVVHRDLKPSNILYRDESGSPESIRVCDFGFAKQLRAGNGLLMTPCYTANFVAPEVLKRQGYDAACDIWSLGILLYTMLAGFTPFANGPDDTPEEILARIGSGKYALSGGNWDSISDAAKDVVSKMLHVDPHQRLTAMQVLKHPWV
SMILES,remaining binding at 1 µM (FLT3(D835H)) [%],remaining binding at 1 µM [1] [%],remaining binding at 1 µM (ULK3) [%],remaining binding at 1 µM (NEK1) [%],remaining binding at 1 µM (KIT(V559D)) [%],remaining binding at 1 µM (LOK) [%]
"Clc1cc(NCC2CC2)c2ncc(-c3ccc4[nH]ncc4c3)n2n1 [compound 2, 6-Chloro-N-(cyclopropylmethyl)-3-(1H-indazol-5-yl)imidazo[1,2-b]pyridazin-8-amine]",13,100,78,84,0.45,100
O=C(CN1CCOCC1)N[C@H]1CC[C@H](Nc2cc(Cl)nn3c(-c4ccc5[nH]ncc5c4)cnc23)CC1 [compound 26],5.5,94,95,92,0.05,100
"CN1CCC(CNc2cc(Cl)nn3c(-c4cc5nc(Nc6ccccc6)[nH]c5cc4F)cnc23)CC1 [compound 31, 6-Chloro-3-(6-fluoro-2-(phenylamino)-1H-benzo[d]imidazol-5-yl)-N-((1-methylpiperidin-4-yl)methyl)imidazo[1,2-b]pyridazin-8-amine]",90,80,68,96,67,91

# — article PMC6437697 (Journal of Medicinal Chemistry, 2019)
